One test deals with T1, CDK9 (Homo sapiens, UniProt P50750).
T1 construct: endogenous in cells; host or cells: MDA-MB-231
The test is described as follows: CDK protein degradation activity (Western blotting), CDK9. Format: cell-based. To be noted: MDA-MB-231 cells, 16 hours, Western blot. The procedure, abridged: (§1)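 Protein levels were read by Western blot densitometry, tubulin serving as loading reference. Beforehand, MDA-MB-231 cells had been exposed for 16 hours to 100 nM, 1 μM or 10 μM compound, DMSO as control.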
On the technique in general: A western blot detects proteins with antibodies after separation by electrophoresis.

The next test deals with T2, CDK2 (Homo sapiens, UniProt P24941).
T2 construct: endogenous in cells; host or cells: MDA-MB-231
The test is described as follows: CDK protein degradation activity (Western blotting), CDK2. To be noted: MDA-MB-231 cells, 16 hours, Western blot. Format: cell-based. The procedure, abridged: as §1

T1 sequence (P50750 whole entry): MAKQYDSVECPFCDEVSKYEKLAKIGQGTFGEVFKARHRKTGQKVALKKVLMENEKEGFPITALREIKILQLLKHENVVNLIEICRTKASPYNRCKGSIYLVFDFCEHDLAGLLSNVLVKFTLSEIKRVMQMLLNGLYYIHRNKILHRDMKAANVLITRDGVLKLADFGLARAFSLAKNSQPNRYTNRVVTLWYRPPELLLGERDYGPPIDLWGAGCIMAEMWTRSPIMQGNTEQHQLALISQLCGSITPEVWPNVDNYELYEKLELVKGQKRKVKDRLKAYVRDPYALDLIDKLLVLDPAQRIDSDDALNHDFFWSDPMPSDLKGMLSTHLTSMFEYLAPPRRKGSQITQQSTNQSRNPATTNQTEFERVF

On to `Cc1cccc(C(=O)N[C@H]2C[C@@H](n3cnc4c(Nc5ccc(N6CCN(CCC7CCN(C(=O)C8CCN(c9ccc%10c(c9)C(=O)N([C@H]9CCC(=O)NC9=O)C%10=O)CC8)CC7)CC6)cc5)ncnc43)C2)n1` [Compound 389, N-((1s,3s)-3-(6-((4-(4-(2-(1-(1-(2-(2,6-dioxopiperidin-3-yl)-1,3-dioxoisoindolin-5-yl)piperidin-4-carbonyl)piperidin-4-yl)ethyl)piperazin-1-yl)phenyl)amino)-9H-purin-9-yl)cyclobutyl)-6-methylpicolinamide], for which, on CDK9, the “Enzyme degradation CDK9 (% remaining) @ 0.1 μM” value was 0/0/0%, the “Enzyme degradation CDK9 (% remaining) @ 1 μM” value is listed as 0/0/0% and the “Enzyme degradation CDK9 (% remaining) @ 10 μM” value is 0/0/0%. Moreover, on CDK2, the “Enzyme degradation CDK2 (% remaining) @ 0.1 μM” value is listed as 40%, the “Enzyme degradation CDK2 (% remaining) @ 1 μM” value is listed as 30% and the “Enzyme degradation CDK2 (% remaining) @ 10 μM” value is reported as 30%.

On to `COc1ccc(C(=O)N2CC(N3CCC4(CC3)CC(N3CCN(c5ccc(Nc6ncnc7c6ncn7[C@H]6C[C@@H](NC(=O)Cc7ccccc7)C6)cc5)CC3)C4)C2)cc1N1CCC(=O)NC1=O` [Compound 272, N-((1s,3s)-3-(6-((4-(4-(7-(1-(3-(2,4-dioxotetrahydropyrimidin-1(2H)-yl)-4-methoxybenzoyl)azetidin-3-yl)-7-azaspiro[3.5]nonan-2-yl)piperazin-1-yl)phenyl)amino)-9H-purin-9-yl)cyclobutyl)-2-phenylacetamide], for which, on CDK9, the “Enzyme degradation CDK9 (% remaining) @ 0.1 μM” value turned out to be 30%, the “Enzyme degradation CDK9 (% remaining) @ 1 μM” value is given as 20% and the “Enzyme degradation CDK9 (% remaining) @ 10 μM” value was 20%. Moreover, at CDK2, the “Enzyme degradation CDK2 (% remaining) @ 0.1 μM” value is 40/40/40%, the “Enzyme degradation CDK2 (% remaining) @ 1 μM” value is recorded as 40/40/40% and the “Enzyme degradation CDK2 (% remaining) @ 10 μM” value is listed as 40/40/40%.

On to `O=C1CC[C@H](N2C(=O)c3cccc(N4CC(N5CCC6(CC5)CC(N5CCN(c7ccc(Nc8ncnc9c8ncn9[C@H]8C[C@@H](NC(=O)Cc9ccccc9)C8)cc7)CC5)C6)C4)c3C2=O)C(=O)N1` [Compound 270, N-((1s,3s)-3-(6-((4-(4-(7-(1-(2-(2,6-dioxopiperidin-3-yl)-1,3-dioxoisoindolin-4-yl)azetidin-3-yl)-7-azaspiro[3.5]nonan-2-yl)piperazin-1-yl)phenyl)amino)-9H-purin-9-yl)cyclobutyl)-2-phenylacetamide], for which, on CDK9, the “Enzyme degradation CDK9 (% remaining) @ 0.1 μM” value came out at 40%, the “Enzyme degradation CDK9 (% remaining) @ 1 μM” value is reported as 30% and the “Enzyme degradation CDK9 (% remaining) @ 10 μM” value is given as 30%. On CDK2, the “Enzyme degradation CDK2 (% remaining) @ 0.1 μM” value came out at 40%, the “Enzyme degradation CDK2 (% remaining) @ 1 μM” value stood at 30% and the “Enzyme degradation CDK2 (% remaining) @ 10 μM” value is 30%.

On to `O=C1CC[C@H](N2C(=O)c3ccc(N4CCC(C(=O)N5CCC(N6CCN(c7ccc(Nc8ncnc9c8ncn9[C@H]8C[C@@H](NC(=O)Cc9ccccc9)C8)cc7)CC6)CC5)CC4)cc3C2=O)C(=O)N1` [Compound 343, N-((1s,3s)-3-(6-((4-(4-(1-(1-(2-(2,6-dioxopiperidin-3-yl)-1,3-dioxoisoindolin-5-yl)piperidin-4-carbonyl)piperidin-4-yl)piperazin-1-yl)phenyl)amino)-9H-purin-9-yl)cyclobutyl)-2-phenylacetamide], for which, on CDK9, the “Enzyme degradation CDK9 (% remaining) @ 0.1 μM” value is given as 10%, the “Enzyme degradation CDK9 (% remaining) @ 1 μM” value was 0% and the “Enzyme degradation CDK9 (% remaining) @ 10 μM” value is 0%. Also, at CDK2, the “Enzyme degradation CDK2 (% remaining) @ 0.1 μM” value worked out at 30%, the “Enzyme degradation CDK2 (% remaining) @ 1 μM” value was determined as 30% and the “Enzyme degradation CDK2 (% remaining) @ 10 μM” value came to 40%.

The values above are taken from patent US20260125382A1, “COMPOUNDS FOR INHIBITING OR DEGRADING CDK2 AND/OR CDK9 AND MEDICINAL USE THEREOF” (KOREA RESEARCH INSTITUTE OF CHEMICAL TECHNOLOGY, priority 2022, published 2026).
